Data from ChEMBL document CHEMBL1201861, “Genomics of Drug Sensitity in Cancer screening data, Wellcome Trust Sanger Institute”.

How the values were obtained:
Assay in all cases: cells
[1] = system: SK-NEP-1; type: functional, cell-based, Homo sapiens; conditions: Homo sapiens, SK-NEP-1;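 note: growth inhibition of human SK-NEP-1 cells, read out by a cell viability assay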
Description: SANGER: Inhibition of human SK-NEP-1 cell growth in a cell viability assay.

[2] = system: 8-MG-BA; type: functional, cell-based, Homo sapiens; conditions: Homo sapiens, 8-MG-BA;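 note: growth inhibition of 8-MG-BA cells, read out with a cell viability assay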
Description: SANGER: Inhibition of human 8-MG-BA cell growth in a cell viability assay.

[3] = system: RCC10RGB; type: functional, cell-based, Homo sapiens; conditions: Homo sapiens, RCC10RGB;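 note: growth inhibition of human RCC10RGB cells, read out by a cell viability assay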
Description: SANGER: Inhibition of human RCC10RGB cell growth in a cell viability assay.

[4] = system: MEG-01; type: functional, cell-based, Homo sapiens; conditions: Homo sapiens, MEG-01;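 note: growth inhibition of MEG-01 cells, read out by a cell viability assay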
Description: SANGER: Inhibition of human MEG-01 cell growth in a cell viability assay.

[5] = system: LNCaP-Clone-FGC; type: functional, cell-based, Homo sapiens; conditions: Homo sapiens, LNCaP-Clone-FGC
Description: SANGER: Inhibition of human LNCaP-Clone-FGC cell growth in a cell viability assay.

[6] = system: HAL-01; type: functional, cell-based, Homo sapiens; conditions: Homo sapiens, HAL-01;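 note: growth inhibition of human HAL-01 cells, read out with a cell viability assay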
Description: SANGER: Inhibition of human HAL-01 cell growth in a cell viability assay.

[7] = system: ML-2; type: functional, cell-based, Homo sapiens; conditions: Homo sapiens, ML-2;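 note: growth inhibition of ML-2 cells, measured with a cell viability readout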
Description: SANGER: Inhibition of human ML-2 cell growth in a cell viability assay.

[8] = system: GOTO; type: functional, cell-based, Homo sapiens; conditions: Homo sapiens, GOTO;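 note: growth inhibition of GOTO cells, read out by a cell viability assay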
Description: SANGER: Inhibition of human GOTO cell growth in a cell viability assay.

[9] = system: L-363; type: functional, cell-based, Homo sapiens; conditions: Homo sapiens, L-363
Description: SANGER: Inhibition of human L-363 cell growth in a cell viability assay.

[10] = system: TE-6; type: functional, cell-based, Homo sapiens; conditions: Homo sapiens, TE-6;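 note: growth inhibition of TE-6 cells, read out with a cell viability assay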
Description: SANGER: Inhibition of human TE-6 cell growth in a cell viability assay.

[11] = system: KY821; type: functional, cell-based, Homo sapiens; conditions: Homo sapiens, KY821;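 note: growth inhibition of human KY821 cells, read out by a cell viability assay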
Description: SANGER: Inhibition of human KY821 cell growth in a cell viability assay.

[12] = system: SNU-5; type: functional, cell-based, Homo sapiens; conditions: Homo sapiens, SNU-5;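 note: cell viability readout used to measure growth inhibition in human NCI-SNU-5 cells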
Description: SANGER: Inhibition of human NCI-SNU-5 cell growth in a cell viability assay.

[13] = system: RH-1; type: functional, cell-based, Homo sapiens; conditions: Homo sapiens, RH-1;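 note: growth inhibition of human RH-1 cells, read out with a cell viability assay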
Description: SANGER: Inhibition of human RH-1 cell growth in a cell viability assay.

[14] = system: Becker; type: functional, cell-based, Homo sapiens; conditions: Homo sapiens, Becker;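 note: growth inhibition of Becker cells, read out with a cell viability assay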
Description: SANGER: Inhibition of human Becker cell growth in a cell viability assay.

[15] = system: LU-139; type: functional, cell-based, Homo sapiens; conditions: Homo sapiens, LU-139
Description: SANGER: Inhibition of human LU-139 cell growth in a cell viability assay.

[16] = system: NCI-H526; type: functional, cell-based, Homo sapiens; conditions: Homo sapiens, NCI-H526;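 note: growth inhibition of the human NCI-H526 cell line, measured by a cell viability assay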
Description: SANGER: Inhibition of human NCI-H526 cell growth in a cell viability assay.

[17] = system: TE-1; type: functional, cell-based, Homo sapiens; conditions: Homo sapiens, TE-1;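 note: growth inhibition of the human TE-1 cell line, read out with a cell viability assay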
Description: SANGER: Inhibition of human TE-1 cell growth in a cell viability assay.

[18] = system: CTB-1; type: functional, cell-based, Homo sapiens; conditions: Homo sapiens, CTB-1
Description: SANGER: Inhibition of human CTB-1 cell growth in a cell viability assay.

[19] = system: KARPAS-45; type: functional, cell-based, Homo sapiens; conditions: Homo sapiens, KARPAS-45;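 note: inhibition of cell line growth, read out through a viability assay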
Description: SANGER: Inhibition of human KARPAS-45 cell growth in a cell viability assay.

[20] = system: IST-MES1; type: functional, cell-based, Homo sapiens; conditions: Homo sapiens, IST-MES1;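 note: growth inhibition of IST-MES1 cells, measured with a cell viability assay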
Description: SANGER: Inhibition of human IST-MES1 cell growth in a cell viability assay.

[21] = system: J-RT3-T3-5; type: functional, cell-based, Homo sapiens; conditions: Homo sapiens, J-RT3-T3-5;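 note: cell viability assay measuring growth inhibition of human J-RT3-T3-5 cells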
Description: SANGER: Inhibition of human J-RT3-T3-5 cell growth in a cell viability assay.

[22] = system: JAR; type: functional, cell-based, Homo sapiens; conditions: Homo sapiens, JAR;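 note: growth inhibition of human JAR cells determined with a cell viability assay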
Description: SANGER: Inhibition of human JAR cell growth in a cell viability assay.

[23] = system: CW-2; type: functional, cell-based, Homo sapiens; conditions: Homo sapiens, CW-2;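 note: growth inhibition of CW-2 cells, read out by a cell viability assay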
Description: SANGER: Inhibition of human CW-2 cell growth in a cell viability assay.

[24] = system: NB12; type: functional, cell-based, Homo sapiens; conditions: Homo sapiens, NB12;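 note: growth inhibition of human NB12 cells, read out by a cell viability assay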
Description: SANGER: Inhibition of human NB12 cell growth in a cell viability assay.

[25] = system: HCC1187; type: functional, cell-based, Homo sapiens; conditions: Homo sapiens, HCC1187;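 note: growth inhibition of HCC1187 cells, read out with a cell viability assay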
Description: SANGER: Inhibition of human HCC1187 cell growth in a cell viability assay.

[26] = system: BB65-RCC; type: functional, cell-based, Homo sapiens; conditions: Homo sapiens, BB65-RCC;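 note: growth inhibition of the cell line, measured with a cell viability assay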
Description: SANGER: Inhibition of human BB65-RCC cell growth in a cell viability assay.

[27] = system: NMC-G1; type: functional, cell-based, Homo sapiens; conditions: Homo sapiens, NMC-G1;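 note: growth inhibition of the NMC-G1 cell line, measured with a cell viability read-out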
Description: SANGER: Inhibition of human NMC-G1 cell growth in a cell viability assay.

[28] = system: C8166; type: functional, cell-based, Homo sapiens; conditions: Homo sapiens, C8166;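 note: growth inhibition of human C8166 cells measured by a cell viability assay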
Description: SANGER: Inhibition of human C8166 cell growth in a cell viability assay.

[29] = system: MOLT-16; type: functional, cell-based, Homo sapiens; conditions: Homo sapiens, MOLT-16;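 note: growth inhibition of human MOLT-16 cells, read out with a cell viability assay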
Description: SANGER: Inhibition of human MOLT-16 cell growth in a cell viability assay.

[30] = system: ONS-76; type: functional, cell-based, Homo sapiens; conditions: Homo sapiens, ONS-76;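 note: growth inhibition of human ONS-76 cells, read out with a cell viability assay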
Description: SANGER: Inhibition of human ONS-76 cell growth in a cell viability assay.

[31] = system: BV-173; type: functional, cell-based, Homo sapiens; conditions: Homo sapiens, BV-173
Description: SANGER: Inhibition of human BV-173 cell growth in a cell viability assay.

[32] = system: LS-123; type: functional, cell-based, Homo sapiens; conditions: Homo sapiens, LS-123
Description: SANGER: Inhibition of human LS-123 cell growth in a cell viability assay.

[33] = system: COLO-824; type: functional, cell-based, Homo sapiens; conditions: Homo sapiens, COLO-824
Description: SANGER: Inhibition of human COLO-824 cell growth in a cell viability assay.

[34] = system: COLO-684; type: functional, cell-based, Homo sapiens; conditions: Homo sapiens, COLO-684
Description: SANGER: Inhibition of human COLO-684 cell growth in a cell viability assay.

[35] = system: MFM-223; type: functional, cell-based, Homo sapiens; conditions: Homo sapiens, MFM-223
Description: SANGER: Inhibition of human MFM-223 cell growth in a cell viability assay.

[36] = system: NH-12; type: functional, cell-based, Homo sapiens; conditions: Homo sapiens, NH-12;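 note: growth inhibition of NH-12 cells, read out with a cell viability assay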
Description: SANGER: Inhibition of human NH-12 cell growth in a cell viability assay.

[37] = system: D-247MG; type: functional, cell-based, Homo sapiens; conditions: Homo sapiens, D-247MG
Description: SANGER: Inhibition of human D-247MG cell growth in a cell viability assay.

[38] = system: RPMI-8866; type: functional, cell-based, Homo sapiens; conditions: Homo sapiens, RPMI-8866
Description: SANGER: Inhibition of human RPMI-8866 cell growth in a cell viability assay.

[39] = system: LB373-MEL-D; type: functional, cell-based, Homo sapiens; conditions: Homo sapiens, LB373-MEL-D;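 note: growth inhibition of the cell line, read out in a cell viability assay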
Description: SANGER: Inhibition of human LB373-MEL-D cell growth in a cell viability assay.

[40] = system: SK-N-FI; type: functional, cell-based, Homo sapiens; conditions: Homo sapiens, SK-N-FI;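 note: cell viability assay measuring growth inhibition of human SK-N-FI cells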
Description: SANGER: Inhibition of human SK-N-FI cell growth in a cell viability assay.

[41] = system: EW-11; type: functional, cell-based, Homo sapiens; conditions: Homo sapiens, EW-11;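 note: growth inhibition of human EW-11 cells, measured with a cell viability assay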
Description: SANGER: Inhibition of human EW-11 cell growth in a cell viability assay.

[42] = system: BE-13; type: functional, cell-based, Homo sapiens; conditions: Homo sapiens, BE-13;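 note: growth inhibition of human BE-13 cells, measured with a cell viability assay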
Description: SANGER: Inhibition of human BE-13 cell growth in a cell viability assay.

[43] = system: HuTu80; type: functional, cell-based, Homo sapiens, HUTU-80; conditions: Homo sapiens, HuTu80;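 note: growth inhibition of HuTu80 human cells, determined with a cell viability readout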
Description: SANGER: Inhibition of human HUTU-80 cell growth in a cell viability assay.

[44] = system: D-263MG; type: functional, cell-based, Homo sapiens; conditions: Homo sapiens, D-263MG
Description: SANGER: Inhibition of human D-263MG cell growth in a cell viability assay.

[45] = system: DMS-79; type: functional, cell-based, Homo sapiens; conditions: Homo sapiens, DMS-79;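 note: growth inhibition measured with a cell viability assay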
Description: SANGER: Inhibition of human DMS-79 cell growth in a cell viability assay.

[46] = system: SNU-C2B; type: functional, cell-based, Homo sapiens; conditions: Homo sapiens, SNU-C2B;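 note: cell viability readout used to measure compound-driven suppression of SNU-C2B cell proliferation, IC50 marking half-maximal growth inhibition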
Description: SANGER: Inhibition of human SNU-C2B cell growth in a cell viability assay.

[47] = system: IA-LM; type: functional, cell-based, Homo sapiens; conditions: Homo sapiens, IA-LM;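 note: cell viability assay measuring growth inhibition of human IA-LM cells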
Description: SANGER: Inhibition of human IA-LM cell growth in a cell viability assay.

[48] = system: KLE; type: functional, cell-based, Homo sapiens; conditions: Homo sapiens, KLE;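 note: growth inhibition of human KLE cells, read out with a cell viability assay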
Description: SANGER: Inhibition of human KLE cell growth in a cell viability assay.

CC[C@H](CO)Nc1nc(NCc2ccccc2)c2ncn(C(C)C)c2n1 [SELICICLIB] showed an IC50 [1] of over 16000 nM, an IC50 [2] of over 16000 nM and an IC50 [3] of over 16000 nM. It also gave an IC50 [4] of 13800 nM, an IC50 [5] of over 16000 nM and an IC50 [6] of over 16000 nM. It also gave an IC50 [7] of over 16000 nM, an IC50 [8] of over 16000 nM and an IC50 [9] of over 16000 nM. For the same compound, the IC50 [10] was over 16000 nM, the IC50 [11] was over 16000 nM and the IC50 [12] was over 16000 nM. The IC50 [13] was over 16000 nM, the IC50 [14] was 9460 nM and the IC50 [15] was over 16000 nM. It also gave an IC50 [16] of over 16000 nM, an IC50 [17] of over 16000 nM and an IC50 [18] of over 16000 nM. The IC50 [19] was over 16000 nM, the IC50 [20] was over 16000 nM and the IC50 [21] was over 16000 nM. It also gave an IC50 [22] of over 16000 nM, an IC50 [23] of over 16000 nM and an IC50 [24] of over 16000 nM. It also gave an IC50 [25] of over 16000 nM, an IC50 [26] of 9970 nM and an IC50 [27] of over 16000 nM. For the same compound, the IC50 [28] was over 16000 nM, the IC50 [29] was over 16000 nM and the IC50 [30] was over 16000 nM. It also gave an IC50 [31] of over 16000 nM, an IC50 [32] of over 16000 nM and an IC50 [33] of over 16000 nM. For the same compound, the IC50 [34] was over 16000 nM, the IC50 [35] was over 16000 nM and the IC50 [36] was over 16000 nM. For the same compound, the IC50 [37] was 12400 nM, the IC50 [38] was over 16000 nM and the IC50 [39] was over 16000 nM. The IC50 [40] was over 16000 nM, the IC50 [41] was over 16000 nM and the IC50 [42] was over 16000 nM. The IC50 [43] was over 16000 nM, the IC50 [44] was over 16000 nM and the IC50 [45] was over 16000 nM.

Work on COc1cc2ncn(-c3cc(OCc4ccccc4C(F)(F)F)c(C(N)=O)s3)c2cc1OC [GW843682X] yielded an IC50 [1] of 16.5 nM, an IC50 [2] of 19.4 nM and an IC50 [3] of over 256 nM. It also gave an IC50 [4] of 41.9 nM, an IC50 [5] of over 256 nM and an IC50 [6] of 80.8 nM. The IC50 [7] was 50.3 nM, the IC50 [8] was over 256 nM and the IC50 [9] was 81.2 nM. The IC50 [10] was 17.9 nM, the IC50 [11] was 15.9 nM and the IC50 [12] was 52 nM. It also gave an IC50 [13] of 242 nM, an IC50 [14] of 59.7 nM and an IC50 [15] of 65.6 nM. The IC50 [16] was 88.3 nM, the IC50 [46] was 7.53 nM and the IC50 [17] was 14.3 nM. It also gave an IC50 [18] of over 256 nM, an IC50 [19] of 6.13 nM and an IC50 [20] of 159 nM. For the same compound, the IC50 [21] was 21.2 nM, the IC50 [22] was 56.8 nM and the IC50 [23] was over 256 nM. The IC50 [47] was 11.2 nM, the IC50 [25] was 122 nM and the IC50 [26] was 68.9 nM. For the same compound, the IC50 [27] was 206 nM, the IC50 [28] was over 256 nM and the IC50 [29] was 31.5 nM. For the same compound, the IC50 [30] was 77.8 nM, the IC50 [31] was 17.7 nM and the IC50 [32] was 193 nM. It also gave an IC50 [33] of over 256 nM, an IC50 [34] of 95.4 nM and an IC50 [35] of over 256 nM. The IC50 [36] was over 256 nM, the IC50 [37] was over 256 nM and the IC50 [38] was over 256 nM. For the same compound, the IC50 [39] was 149 nM, the IC50 [40] was 232 nM and the IC50 [41] was over 256 nM. It also gave an IC50 [42] of 11 nM, an IC50 [43] of 22.3 nM and an IC50 [44] of over 256 nM. The IC50 [45] was over 256 nM and the IC50 [48] was 213 nM.

Compound N[C@@H](CSC(c1ccccc1)(c1ccccc1)c1ccccc1)C(=O)O [S-TRITYL-L-CYSTEINE] has an IC50 [1] of 1860 nM, an IC50 [2] of over 5120 nM and an IC50 [3] of over 5120 nM. The IC50 [4] was 1800 nM, the IC50 [5] was over 5120 nM and the IC50 [6] was 2420 nM. For the same compound, the IC50 [7] was 2090 nM, the IC50 [8] was over 5120 nM and the IC50 [9] was 1730 nM. For the same compound, the IC50 [10] was 3900 nM, the IC50 [11] was 1780 nM and the IC50 [12] was over 5120 nM. The IC50 [13] was over 5120 nM, the IC50 [14] was 616 nM and the IC50 [15] was 2910 nM. The IC50 [16] was 4450 nM, the IC50 [46] was 1280 nM and the IC50 [17] was 3600 nM. The IC50 [18] was 3200 nM, the IC50 [19] was 1690 nM and the IC50 [20] was over 5120 nM. For the same compound, the IC50 [21] was 970 nM, the IC50 [22] was 941 nM and the IC50 [23] was over 5120 nM. The IC50 [47] was 1390 nM, the IC50 [25] was over 5120 nM and the IC50 [26] was 2380 nM. It also gave an IC50 [27] of 3400 nM, an IC50 [28] of over 5120 nM and an IC50 [29] of 1890 nM. The IC50 [30] was over 5120 nM, the IC50 [31] was 990 nM and the IC50 [32] was over 5120 nM. For the same compound, the IC50 [33] was over 5120 nM, the IC50 [34] was 2080 nM and the IC50 [35] was over 5120 nM. For the same compound, the IC50 [36] was over 5120 nM, the IC50 [37] was over 5120 nM and the IC50 [38] was over 5120 nM. For the same compound, the IC50 [39] was 2840 nM, the IC50 [40] was 3160 nM and the IC50 [41] was over 5120 nM. It also gave an IC50 [42] of 1080 nM, an IC50 [43] of 546 nM and an IC50 [44] of over 5120 nM. The IC50 [45] was over 5120 nM and the IC50 [48] was over 5120 nM.
